Data as given in patent US20250152591A1, “TREATMENT OF HEMATOLOGICAL MALIGNANCIES WITH MENIN INHIBITORS AND P-GLYCOPROTEIN INHIBITORS” (Kura Oncology, Inc., priority 2022, published 2025).

These molecules were tested against T1, Menin (Homo sapiens, UniProt O00255) (assay: Menin binding, fluorescence polarization assay). Conditions: fluorescence polarization assay analogous to WO2017/161028, Example 6.
T1 sequence (O00255 1-610): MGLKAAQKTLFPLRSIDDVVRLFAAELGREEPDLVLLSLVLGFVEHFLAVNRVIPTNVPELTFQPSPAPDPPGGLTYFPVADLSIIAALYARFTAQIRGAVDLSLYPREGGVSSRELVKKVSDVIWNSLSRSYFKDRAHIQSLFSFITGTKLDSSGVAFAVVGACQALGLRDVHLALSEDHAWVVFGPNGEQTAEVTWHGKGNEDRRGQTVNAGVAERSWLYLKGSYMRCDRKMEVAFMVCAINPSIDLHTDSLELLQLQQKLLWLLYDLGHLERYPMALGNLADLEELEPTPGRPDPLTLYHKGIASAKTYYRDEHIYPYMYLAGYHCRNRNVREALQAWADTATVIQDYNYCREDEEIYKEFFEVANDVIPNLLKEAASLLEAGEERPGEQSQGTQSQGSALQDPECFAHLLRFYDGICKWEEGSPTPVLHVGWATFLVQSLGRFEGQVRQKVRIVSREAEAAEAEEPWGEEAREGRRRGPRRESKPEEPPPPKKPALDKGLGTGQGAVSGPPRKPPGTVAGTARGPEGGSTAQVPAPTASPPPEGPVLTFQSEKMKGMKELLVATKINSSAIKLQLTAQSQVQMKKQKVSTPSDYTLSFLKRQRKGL
Method: Menin binding was evaluated using an assay analogous to the fluorescence polarization assay described in PCT Publ. No. WO2017/161028, Example 6.
With `CNc1nc(NC2CCN(Cc3ccc4c(cc(C#N)n4C[C@H](C)N4CCN(S(C)(=O)=O)CC4)c3C)CC2)c2cc([C@@H](O)C(F)(F)F)sc2n1` [Compound IB, 4-methyl-5-((4-((2-(methylamino)-6-((S)-2,2,2-trifluoro-1-hydroxyethyl)thieno[2,3-d]pyrimidin-4-yl)amino)piperidin-1-yl)methyl)-1-((S)-2-(4-(methylsulfonyl)piperazin-1-yl)propyl)-1H-indole-2-carbonitrile] the IC50 was 63.5 nM. Work on `CNc1nc(NC2CCN(Cc3ccc4c(cc(C#N)n4C[C@H](C)N4CCN(S(C)(=O)=O)CC4)c3C)CC2)c2cc([C@H](O)C(F)(F)F)sc2n1` [Compound IC, 4-methyl-5-((4-((2-(methylamino)-6-((R)-2,2,2-trifluoro-1-hydroxyethyl)thieno[2,3-d]pyrimidin-4-yl)amino)piperidin-1-yl)methyl)-1-((S)-2-(4-(methylsulfonyl)piperazin-1-yl)propyl)-1H-indole-2-carbonitrile] yielded an IC50 of 401 nM. Work on `Cc1c(CN2CCC(Nc3nc(N)nc4sc(CC(F)(F)F)cc34)CC2)ccc2c1cc(C#N)n2C[C@H](C)N1CCN(S(C)(=O)=O)CC1` [Compound IA] yielded an IC50 of 36.2 nM.
